The target of data set [1] is T1, CAMKK2 kinase domain (132–470) (Homo sapiens, UniProt Q96RR4).
T1 construct: CAMKK2 kinase domain (132–470) was cloned in a pNIC-Bio2 vector; 10xHis tag followed by a TEV site (N, cleaved yes); made in house; host or cells: E. coli BL21(DE3)-R3-BirA
In words: CaMKK2B TR-FRET tracer displacement assay. The class given is binding. The note with it: for pIC50 / FRET (IC50): CaMKK2, displacement of tracer 236, average of 2 experiments; for increase in potency over compound 2: CaMKK2 FRET IC50 relative to compound 2.
Text: To more accurately determine the relative changes in potency of the TDZ analogues and to enable measurement of accurate IC50^’s, we developed a Time-Resolved Fluorescence Resonance Energy Transfer (TR-FRET) assay. The TR-FRET tracer displacement assays were generated using a protocol derived from the Lanthascreen binding assays (ThermoFisher Scientific, Waltham, MA, USA) [21].

Data set [2] concerns the target T2, human CaMKK2 (residues 50–588) (Homo sapiens, UniProt Q96RR4).
T2 construct: recombinant bacterial expressed human CaMKK2 (residues 50–588); made in house
Briefly: CaMKK2 enzyme assay ([γ-32P]-ATP, CaMKKtide peptide).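 For all read-outs here: radiometric kinase assay: phosphate transfer from [γ-32P]-ATP to synthetic peptide substrate, 10 min reaction at 30 °C, peptide-bound radioactivity captured on P81 paper and measured by scintillation counting.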 The class given is biochemical. The note with it: for pIC50: 50 μM ATP, 7 concentrations, mean of 2 experiments.
Experimental: CaMKK2 activity was measured by determining the rate of transfer of radiolabeled phosphate from [γ-^32P]-ATP to a synthetic peptide substrate [22].
A standard 30 μL assay, 1 ng of recombinant bacterial expressed human CaMKK2 (residues 50–588) was added to assay buffer (50 mM HEPES [pH 7.4], 1 mM DTT, 0.02% (v/v) Brij-35) containing 200 μM CaMKKtide peptide substrate, 50 μM CaCl2, 1 μM calmodulin (Sigma-Aldrich Corp., St. Louis, MO, USA), 50 μM [γ-^32P]-ATP (Perkin Elmer) and 5 mM MgCl2, in the presence and absence of different concentrations of small-molecule inhibitors. Reactions were incubated for 10 min at 30 °C, after which they were terminated by spotting 15 μL onto P81 phosphocellulose paper (Whatman, GE Healthcare, Chicago, IL, USA) and washing extensively in 1% phosphoric acid. Radioactivity was quantified by scintillation counting.

Data set [3] in a line: Chemical stability of the dianilinothiadiazinone core (TLC). It counts as physicochemical. The note with it: 48 h; neutral, acidic (HCl 2 M) or pH 9 aqueous conditions, BuNH2, PhNH2, PhSH, DDQ, Sn. The protocol:
After the synthesis of the desired dianilino-TDZs (1–5), the stability of dianilinothiadiazinone in biological systems was assessed: 3,5-bis(phenylamino)-4H-1,2,6-thiadiazin-4-one (9) was subjected to neutral, acidic or slightly basic aqueous conditions (H2O/DMSO 50:50, THF/HCl 2 M 50:50 or THF/H2O 50:50 at pH 9 with a carbonate buffer), presence of amine or thiol nucleophiles (BuNH2 1 equiv., PhNH2 1 equiv., PhSH 1 equiv.), oxidizing [2,3-dichloro-5,6-dicyano-1,4-benzoquinone (DDQ) 2 equiv.] and reducing conditions (Sn, 2 equiv.).

On the set-up of data set [4]: method as in PMID 17519230, PMID 12540834. The note with it: cited from earlier work.
Data set [5] concerns arylhydrocarbon receptor (AhR). On the set-up: method as in PMID 18755850. The note with it: cited from earlier work.
Data set [6] has as its system kinases including ERK8, MNK1 and PIM3. The arrangement: method as in PMID 17519230, PMID 12540834. The note with it: cited from earlier work.

pIC50: −log10 of the molar value. Several values for one entry are separate records, joined by “and”; a condition that tells them apart may be missing. Equal values may be shown once. Bounds are passed on as bounds.

T1 sequence (Q96RR4 132-470): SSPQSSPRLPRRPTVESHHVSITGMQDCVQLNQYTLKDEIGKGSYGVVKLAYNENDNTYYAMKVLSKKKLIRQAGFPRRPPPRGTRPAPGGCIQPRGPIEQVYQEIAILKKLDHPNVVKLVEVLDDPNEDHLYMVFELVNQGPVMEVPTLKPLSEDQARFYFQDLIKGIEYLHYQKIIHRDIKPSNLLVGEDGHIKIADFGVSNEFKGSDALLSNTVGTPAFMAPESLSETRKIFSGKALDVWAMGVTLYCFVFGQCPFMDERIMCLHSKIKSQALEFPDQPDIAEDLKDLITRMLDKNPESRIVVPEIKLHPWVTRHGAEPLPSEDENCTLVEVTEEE

What is called pIC50 is −log10 of the IC50, conventionally taken in molar units. Lower therefore signals a large IC50. By melting point is commonly meant the temperature of the solid-liquid transition. The molecule `Cc1ccc(Nc2nsnc(-c3ccc(C(=O)O)c(C4CCCC4)c3)c2=O)cc1O` [Compound 19, 2-Cyclopentyl-4-{5-[(3-hydroxy-4-methylphenyl)amino]-4-oxo-4H-1,2,6-thiadiazin-3-yl}-benzoic acid] came in with a melting point of 277 to 278 °C. In addition, the pIC50 in data set [1] was 4.42.
`Cc1ccc(Nc2nsnc(Nc3ccc(-c4ncc[nH]4)cc3)c2=O)cc1O` [Compound 11, 3-{[4-(1H-Imidazol-2-yl)phenyl]amino}-5-[(3-hydroxy-4-methylphenyl)amino]-4H-1,2,6-thiadiazin-4-one]: the negative logarithm of the IC50 (pIC50) in data set [1] is 5.49; in data set [2], 5.19. Besides, the “increase in potency over compound 2” value in data set [1] is given as above 15 fold. Also, the “Enzyme assay raw data (0 μM drug = 100.00)” value (from here on “Enzyme assay raw data”) came to 98.56 in data set [2] ([drug] 0.001 μM); 93.09 in data set [2] ([drug] 0.01 μM); 84.85 in data set [2] ([drug] 0.1 μM); 79.37 in data set [2] ([drug] 1 μM); 42.11 in data set [2] ([drug] 10 μM); 1.23 in data set [2] ([drug] 100 μM).
`Cc1ccc(Nc2nsnc(Nc3ccccc3C#N)c2=O)cc1O` [Compound 13, 2-({5-[(3-Hydroxy-4-methylphenyl)amino]-4-oxo-4H-1,2,6-thiadiazin-3-yl}amino)benzonitrile] showed a melting point of 229 to 230 °C. For the same molecule, the pIC50 in data set [1] was 4.37.
For the molecule `O=c1c(Nc2ccccc2)nsnc1Nc1ccccc1` [Compound 9, 3,5-bis(phenylamino)-4H-1,2,6-thiadiazin-4-one], the “stability (by TLC)” value in data set [3] is listed as “stable”.
In turn, `Cc1ccc(Nc2nsnc(Nc3cccc(C#N)c3)c2=O)cc1O` [Compound 14, 3-({5-[(3-Hydroxy-4-methylphenyl)amino]-4-oxo-4H-1,2,6-thiadiazin-3-yl}amino)benzonitrile] came in with a melting point of 258 to 259 °C. In data set [1], the pIC50 was below 4.30.
As to `Cc1ccc(Nc2nsnc(Nc3ccc(C(=O)O)cc3)c2=O)cc1O` [Compound 12, 4-({5-[(3-Hydroxy-4-methylphenyl)amino]-4-oxo-4H-1,2,6-thiadiazin-3-yl}amino)benzoic acid], the pIC50 in data set [1] is 4.98; in data set [2], 5.39. For the same molecule, in data set [1], the “increase in potency over compound 2” value is listed as above 5 fold. The “Enzyme assay raw data” value amounted to 102.38 in data set [2] ([drug] 0.001 μM); 95.03 in data set [2] ([drug] 0.01 μM); 89.54 in data set [2] ([drug] 0.1 μM); 79.70 in data set [2] ([drug] 1 μM); 28.43 in data set [2] ([drug] 10 μM); 0.83 in data set [2] ([drug] 100 μM).
Regarding `Cc1ccc(Nc2nsnc(Nc3ccccc3C(N)=O)c2=O)cc1O` [Compound 10, 2-({5-[(3-Hydroxy-4-methylphenyl)amino]-4-oxo-4H-1,2,6-thiadiazin-3-yl}amino)benzamide], the pIC50 in data set [1] was 5.11; in data set [2], 4.93 and 4.92. Besides, in data set [1], the “increase in potency over compound 2” value is above 8 fold. The “Enzyme assay raw data” value came to 102.30 in data set [2] ([drug] 0.001 μM); 98.48 in data set [2] ([drug] 0.01 μM); 91.02 in data set [2] ([drug] 0.1 μM); 85.36 in data set [2] ([drug] 1 μM); 52.53 in data set [2] ([drug] 10 μM); 2.19 in data set [2] ([drug] 100 μM).
With `O=C(O)c1ccc2c3c1cccc3c(=O)n1c3ccccc3nc21` [STO-609, 7-oxo-7H-benzimidazo[2,1-a]benz[de]isoquinoline-3-carboxylic acid, reference compound], the “Enzyme assay raw data” value in data set [2] ([drug] 0.001 μM) was determined as 88.33; in data set [2] ([drug] 0.01 μM), 69.88; in data set [2] ([drug] 0.1 μM), 42.21; in data set [2] ([drug] 1 μM) it was 4.64; in data set [2] ([drug] 10 μM), 1.89; in data set [2] ([drug] 100 μM), 0.07. For the same molecule, the solubility result in data set [4] is given as “poor solubility”. For the same molecule, in data set [5], the “activity on arylhydrocarbon receptor (AhR)” value is recorded as “agonist”. The off-target kinome profile entry in data set [6] is “unfavorable off-target kinome profile”.
Consider `Cc1ccc(Nc2nsnc(Nc3cccc(C(F)(F)F)c3CO)c2=O)cc1O` [Compound 18, 3-[(3-Hydroxy-4-methylphenyl)amino]-5-{[2-(hydroxymethyl)-3-(trifluoromethyl)phenyl]amino}-4H-1,2,6-thiadiazin-4-one], for which, in data set [1], the “FRET (IC50)” value was “effectively inactive” and the pIC50 was below 4.30.
Consider `Cc1ccc(Nc2nsnc(Nc3ccc(C#N)cc3)c2=O)cc1O` [Compound 15, 4-({5-[(3-Hydroxy-4-methylphenyl)amino]-4-oxo-4H-1,2,6-thiadiazin-3-yl}amino)benzonitrile], for which the melting point is 280 °C (dec.). The molecule further gave a pIC50 in data set [1] below 4.30.
As for “4-({5-[(3-Hydroxy-4-methylphenyl)amino]-4-oxo-4H-1,2,6-thiadiazin-3-yl}(oxazol-4-ylmethyl)amino)-benzamide [Compound 16]”, the pIC50 in data set [1] was below 4.30.
`Cc1ccc(Nc2nsnc(Nc3ccccc3CO)c2=O)cc1O` [Compound 17, 3-[(3-Hydroxy-4-methylphenyl)amino]-5-{[2-(hydroxymethyl)phenyl]amino}-4H-1,2,6-thiadiazin-4-one]: in data set [1], the “FRET (IC50)” value was “effectively inactive” and the pIC50 was below 4.30.

The values are drawn from article PMC6019134, “1,2,6-Thiadiazinones as Novel Narrow Spectrum Calcium/Calmodulin-Dependent Protein Kinase Kinase 2 (CaMKK2) Inhibitors” (Molecules : A Journal of Synthetic Chemistry and Natural …, 2018).
